These are literature values, as cited in PMC5963526 (Biochimica et biophysica acta, 2018).

With `CC1=C(/C=C/C(C)=C/C=C/C(C)=C\C(=O)O)C(C)(C)CCC1` [13-cis-retinoic acid], the “protection of the retina from light damage” value with retina was “protects the retina from light damage”. As to `CC(C)(C)[N+]([O-])=Cc1ccccc1` [PBN, a-phenyl-N-tert-butylnitrone], the “protection against LIRD” value with rats is “complete protection”.
